{"source": "a polymer gas permeability compilation"}
{"units": {"CH4 permeability": "Barrer", "CO2 permeability": "Barrer", "H2 permeability": "Barrer", "N2 permeability": "Barrer", "O2 permeability": "Barrer"}}
{"smiles": "*Oc1cc(C)c(C2(c3cc(C(C)C)c(Oc4ccc(S(=O)(=O)c5ccc(*)cc5)cc4)cc3C)OC(=O)c3ccccc32)cc1C(C)C", "note": "(repeat unit)", "CH4 permeability": 0.928, "CO2 permeability": 19.4, "H2 permeability": 30.6, "N2 permeability": 0.699, "O2 permeability": 4.85}
{"smiles": "*=CC1CC(C=*)C(C(F)(F)F)(C(F)(F)F)C1(F)F", "note": "(repeat unit)", "CH4 permeability": 9.54, "CO2 permeability": 102, "N2 permeability": 10.7, "O2 permeability": 27.7}
{"smiles": "*Oc1ccc(C(C)(C)c2ccc(OC(=O)c3ccc(C(*)=O)cc3)cc2)cc1", "note": "(repeat unit)", "CH4 permeability": 0.678, "CO2 permeability": 11.6, "N2 permeability": 0.625, "O2 permeability": 2.5}
{"smiles": "*c1c(C)c2c(c(N3C(=O)c4ccc(Oc5ccc6c(c5)C(=O)N(*)C6=O)cc4C3=O)c1C)C(C)(C)CC2", "note": "(repeat unit)", "CH4 permeability": 10.3, "CO2 permeability": 161, "N2 permeability": 10.3, "O2 permeability": 43.9}
{"smiles": "*/C(C)=C(/*)[Si](C)(C)CCCC", "note": "(repeat unit)", "CH4 permeability": 17, "CO2 permeability": 100, "H2 permeability": 65, "N2 permeability": 8, "O2 permeability": 29}
{"smiles": "*Oc1cc2c(cc1O*)C1(CC2(C)C)CC(C)(C)c2cc3c(cc21)Oc1c(C#N)c(*)c(*)c(C#N)c1O3", "note": "(repeat unit)", "CH4 permeability": 298, "CO2 permeability": 5090, "H2 permeability": 2280, "N2 permeability": 256, "O2 permeability": 913}
{"smiles": "*c1ccc(C(c2ccc(N3C(=O)c4ccc(Oc5cc(C)c(Oc6ccc7c(c6)C(=O)N(*)C7=O)c(C)c5C)cc4C3=O)cc2)(C(F)(F)F)C(F)(F)F)cc1", "note": "(repeat unit)", "CH4 permeability": 1.7, "CO2 permeability": 54, "H2 permeability": 77, "N2 permeability": 1.9, "O2 permeability": 9.3}
{"smiles": "*c1ccc(-c2ccc(-c3ccc(C(*)(c4ccccc4)C(F)(F)F)cc3)cc2)cc1", "note": "(repeat unit)", "CH4 permeability": 13, "CO2 permeability": 220, "H2 permeability": 126, "N2 permeability": 9, "O2 permeability": 32}
{"smiles": "*OC(=O)c1ccc(C(=O)Oc2ccc(C(C)(C)c3ccc(O*)c(C)c3)cc2C)cc1", "note": "(repeat unit)", "CH4 permeability": 0.17, "CO2 permeability": 5.8, "N2 permeability": 0.23, "O2 permeability": 1.12}
{"smiles": "*C(=C(*)c1ccc2c(c1)C(C)(C)CC2(C)C)c1cccc(F)c1", "note": "(repeat unit)", "CH4 permeability": 27800, "CO2 permeability": 35200, "H2 permeability": 27000, "N2 permeability": 12000, "O2 permeability": 14300}
{"smiles": "*c1ccc(C2(c3ccc(*)cc3)c3ccccc3-c3ccccc32)cc1", "note": "(repeat unit)", "CH4 permeability": 0.84, "CO2 permeability": 35.6, "N2 permeability": 1.36, "O2 permeability": 6.8}
{"smiles": "*c1ccc2c3c(ccc2c1)OC1Oc2ccc4cc(N5C(=O)c6ccc(C(c7ccc8c(c7)C(=O)N(*)C8=O)(C(F)(F)F)C(F)(F)F)cc6C5=O)ccc4c2C31", "note": "(repeat unit)", "CH4 permeability": 0.7, "CO2 permeability": 29.9, "H2 permeability": 73, "N2 permeability": 1.2, "O2 permeability": 7.2}
{"smiles": "*C(=C(*)c1ccc2c(c1)CCC2)c1ccccc1", "note": "(repeat unit)", "CH4 permeability": 60, "CO2 permeability": 390, "H2 permeability": 360, "N2 permeability": 30, "O2 permeability": 86}
{"smiles": "*c1cc2c(cc1*)C1(C(C)C)c3ccccc3C2(C(C)C)c2cc3c(cc21)Oc1cc2nc(*)c(*)nc2cc1O3", "note": "(repeat unit)", "CH4 permeability": 7.27, "H2 permeability": 1100, "N2 permeability": 7.09, "O2 permeability": 61}
{"smiles": "*C(=C(*)c1cccc(O[Si](C)(C)C(C)(C)C)c1)c1ccc([Si](C)(C)C)cc1", "note": "(repeat unit)", "CH4 permeability": 1100, "CO2 permeability": 2900, "H2 permeability": 1600, "N2 permeability": 430, "O2 permeability": 810}
{"smiles": "*c1ccc(C(c2ccc(-c3nnc(*)o3)cc2)(C(F)(F)F)C(F)(F)F)cc1", "note": "(repeat unit)", "CH4 permeability": 4.55, "CO2 permeability": 123, "N2 permeability": 6.1}
{"smiles": "*Nc1ccc(S(=O)(=O)c2ccc(NC(=O)c3cccc(C(*)=O)c3)cc2)cc1", "note": "(repeat unit)", "CH4 permeability": 0.014, "CO2 permeability": 0.78, "H2 permeability": 4.3, "N2 permeability": 0.031, "O2 permeability": 0.19}
{"smiles": "*Oc1ccc(Oc2ccc(Oc3ccc(S(=O)(=O)c4ccc(*)cc4)cc3)cc2)cc1", "note": "(repeat unit)", "CH4 permeability": 0.18, "CO2 permeability": 4.3, "H2 permeability": 15, "N2 permeability": 0.196, "O2 permeability": 1.1}
{"smiles": "*c1ccc2c(c1)C1c3ccccc3C2c2ccc(N3C(=O)c4ccc(C(c5ccc6c(c5)C(=O)N(*)C6=O)(C(F)(F)F)C(F)(F)F)cc4C3=O)cc21", "note": "(repeat unit)", "CH4 permeability": 3.65, "CO2 permeability": 131, "H2 permeability": 212, "N2 permeability": 5.32, "O2 permeability": 28.1}
{"smiles": "*O[Si](*)(C)CC", "note": "(repeat unit)", "CH4 permeability": 474, "CO2 permeability": 1510, "N2 permeability": 160, "O2 permeability": 332}
